Test results as given in publication PMC7395068, “The evolution of strategies to minimise the risk of human drug-induced liver injury (DILI) in drug discovery and development” (Archives of Toxicology, 2020).
Where two headings read alike, the source gives them in different places.

Columns and labels:
PHH = details: cited from earlier work
Upcyte human hepatocytes = details: In vitro Assay; ref Tolosa 2019; cited from earlier work
hLiMTs [1] = details: cited from earlier work
[2] = tested on: HepG2 C3A spheroid, BSEP, Glu/Gal in HepG2 cells, bioactivation; details: cited from earlier work
PHH spheroids = details: cited from earlier work
[3] = tested on: THLE or HepG2 cells, isolated mitochondria, BSEP; details: cited from earlier work
[4] = ref Chen 2011; cited from earlier work
[5] = cited from earlier work
[6] = cited from earlier work; remark: listed apart in the source
HepG2 cells [7] = details: cited from earlier work
[8] = tested on: HepG2 cells, primary human hepatocytes; details: In vitro Assay; ref Garside 2014; cited from earlier work
[9] = tested on: THLE-Null and THLE-3A4 cells; details: In vitro Assay; ref Gustafsson 2014; cited from earlier work
[10] = read-out: Human plasma Cmax; total plasma Cmax.tot, median of 9 literature references; cited from earlier work
human hepatocytes = details: cited from earlier work
rBsep = details: In vitro Assay; ref Dawson 2012; cited from earlier work
HepG2 cells [11] = details: In vitro Assay; ref Tolosa 2012; cited from earlier work
hLiMTs [12] = test: Combined HCI (HCS) and cellular ATP 3D assay in hLiMTs
[13] = plasma free fraction; cited from earlier work
[14] = Plasma free fraction (fu) and unbound Cmax (Cmax,u); assay type: in vitro ADME, human; details: unbound plasma Cmax
[15] = tested on: primary human hepatocytes, NIH3T3 fibroblasts, BSEP, CYP3A4; details: cited from earlier work
HepG2 cells [16] = details: cited from earlier work; remark: listed apart in the source
HepaRG spheroids = test: Combined HCI (HCS) and cellular ATP 3D assay in HepaRG spheroids; details: for AC50 / minimal effective concentration: Homo sapiens
[17] = In vitro Assay, ref Proctor 2017
[18] = Modeled in vitro assays (cytotoxicity, mitochondrial dysfunction, BSEP), ref Aleo et al. 2019
[19] = Microtissue model structural based (HCI), combined HCS and ATP, MEC < 25 × Cmax.tot cut-off
[20] = In vitro Assay, ref Schadt 2015
[21] = In vitro Assay, ref Persson 2013

hLiMTs <25x Avg Cmax ATP (hLiMTs [12]; hLiMTs, ATP endpoint, cut-off <25x Avg Cmax): -ve
hLiMTs <100x Avg Cmaxu ATP (hLiMTs [12]; hLiMTs, ATP endpoint, cut-off <100x Avg Cmaxu): -ve
hLiMTs <25x Avg Cmax HCS (hLiMTs [12]; hLiMTs, HCS endpoints, cut-off <25x Avg Cmax): +ve
hLiMTs <100x Avg Cmaxu HCS (hLiMTs [12]; hLiMTs, HCS endpoints, cut-off <100x Avg Cmaxu): +ve (<100x Avg Cmaxu)
hLiMTs <25x Avg Cmax All (hLiMTs [12]; hLiMTs, all endpoints (ATP and HCS), cut-off <25x Avg Cmax): +ve
hLiMTs Cmax max All (hLiMTs [12]; hLiMTs, all endpoints, Cmax max used): +ve
hLiMTs Cmax min All (hLiMTs [12]; hLiMTs, all endpoints, Cmax min used): -ve
hLiMTs <10 uM All (hLiMTs [12]; hLiMTs, all endpoints, cut-off <10 uM): +ve (<10 uM)
hLiMTs <100x Avg Cmaxu All (hLiMTs [12]; hLiMTs, all endpoints, cut-off <100x Avg Cmaxu): +ve (<100x Avg Cmaxu)
Human plasma Cmax,u [14]: 2.315 µM
HepaRG <25x Avg Cmax ATP (HepaRG spheroids; HepaRG, ATP endpoint, cut-off <25x Avg Cmax): +ve
HepaRG <100x Avg Cmaxu ATP (HepaRG spheroids; HepaRG, ATP endpoint, cut-off <100x Avg Cmaxu): +ve (<100x Avg Cmaxu)
HepaRG <25x Avg Cmax HCS (HepaRG spheroids; HepaRG, HCS endpoints, cut-off <25x Avg Cmax): +ve
HepaRG <100x Avg Cmaxu HCS (HepaRG spheroids; HepaRG, HCS endpoints, cut-off <100x Avg Cmaxu): +ve (<100x Avg Cmaxu)
HepaRG <25x Avg Cmax All (HepaRG spheroids; HepaRG, all endpoints (ATP and HCS), cut-off <25x Avg Cmax): +ve
HepaRG Cmax max All (HepaRG spheroids; HepaRG, all endpoints, Cmax max used): +ve
HepaRG Cmax min All (HepaRG spheroids; HepaRG, all endpoints, Cmax min used): +ve
HepaRG <10 uM All (HepaRG spheroids; HepaRG, all endpoints, cut-off <10 uM): +ve (<10 uM)
HepaRG <100x Avg Cmaxu All (HepaRG spheroids; HepaRG, all endpoints, cut-off <100x Avg Cmaxu): +ve (<100x Avg Cmaxu)
SMILES: CN(Cc1cnc2nc(N)nc(N)c2n1)c1ccc(C(=O)N[C@@H](CCC(=O)O)C(=O)O)cc1 [methotrexate, reference compound]
PHH/100uM, Proctor (2017) (PHH; 2D PHH, ATP, IC50 threshold 100 µM, ref Proctor et al. 2017): -VE
PHH ATP <100uM (PHH; [17]): -VE
Upcytes multi donor assay 14day data (Upcyte human hepatocytes): +VE
hLiMTs ATP <100uM (hLiMTs [1]; [17]): -VE
hLiMTs/100uM, Proctor (2017) (hLiMTs [1]; hLiMTs, ATP, IC50 threshold 100 µM, ref Proctor et al. 2017): -VE
Bayesian Machine Learning DILI prediction, Williams (2019) ([2]; Bayesian modeling, ref Williams et al. 2019): +VE
Bayesian Machine Learning ([2]; In vitro Assay, ref Williams 2019): +VE
hLiMTs ATP <20 x Cmax (PHH spheroids; In vitro Assay, ref Vorrink 2018): +VE (IC20 < 20 × Cmax.tot cut-off)
DILI in vitro assay prediction, Vorrink (2018) (PHH spheroids; PHH spheroids, ATP, 14 days, IC20 < 20 × Cmax.tot, ref Vorrink et al. 2018): +VE (IC20 < 20 × Cmax.tot cut-off)
Partition Hybrid HRM Score ([3]; In vitro Assay, ref Aleo 2019): +VE
Ro2 Hybrid HRM Score ([3]; In vitro Assay, ref Aleo 2019): +VE
Partition Hybrid HRM Score ≥4, Aleo (2019) [3, 18]: +VE (Partition Hybrid HRM Score ≥4)
Partition Hybrid HRM Score ≥8, Aleo (2019) [3, 18]: -VE
Rule of Two hybrid HRM Score ≥3, Aleo (2019) [3, 18]: +VE (Rule of Two hybrid HRM Score ≥3)
Rule of Two hybrid HRM Score ≥8, Aleo (2019) [3, 18]: -VE
DILI Score (FDA) (1-8) [4]: 3
DILI severity category (Chen et al. [2016]) ([5]; LTKB DILIrank category, ref Chen et al. 2016): Most
DILI severity category (Chen 2016) ([5]; human DILI classification, LTKB DILIrank, ref Chen et al. 2016): Most
DILI severity category ([5]; human DILI severity, ref Chen et al.): Most
DILI +VE (5-8), DILI -VE (-4) ([5]; ref Chen 2016): +VE
DILI severity category ([5]; ref Chen 2016): vMost-DILI-Concern
Assigned DILI category ([6]; Chen et al. 2016 or literature alignment, ref Chen et al. 2016): 3
In vivo DILI ([6]; […]): +VE
In vivo DILI ([6]; ref Aleo 2019): +VE
In vivo DILI ([6]; ref Dawson 2012): +VE
In vivo DILI ([6]; ref Garside 2014): +VE
In vivo DILI ([6]; ref Gustafsson 2014): +VE
In vivo DILI ([6]; ref O'Brien 2006): +VE
In vivo DILI ([6]; ref Persson 2013): +VE
In vivo DILI ([6]; ref Proctor 2017): +VE
In vivo DILI ([6]; ref Schadt 2015): +VE
In vivo DILI ([6]; ref Tolosa 2012): +VE
In vivo DILI ([6]; ref Tolosa 2019): +VE
In vivo DILI ([6]; ref Vorrink 2018): +VE
In vivo DILI ([6]; ref Williams 2019): +VE
In vivo DILI ([6]; ref Xu 2008): +VE
Structural based (HCI) (HepG2 cells [7]; In vitro Assay, ref O'Brien 2006): +VE
DILI in vitro assay prediction, O'Brien (2006) (HepG2 cells [7]; Structural based (HCI), HepG2, ref O'Brien et al. 2006): +VE (lowest HCI endpoint IC50 (or in the absence of dose–response < 100 µM) < 30 × total human plasma exposure levels (Cmax.tot))
Cluster 1-6 +VE Assay [8]: -VE
THLE-Null [9]: -VE
Cmax [10]: 4.63 µM
Structural based (HCI) (human hepatocytes; In vitro Assay, ref Xu 2008): -VE
DILI in vitro assay prediction, Xu (2008) (human hepatocytes; Structural based (HCI), human hepatocytes, ref Xu et al. 2008): -VE
Inhibition of rBsep cutoff<1& cmax u>.2 (rBsep): -VE
Inhibition of rBsep cutoff<3 (rBsep): -VE
Structural based (HCI) (HepG2 cells [11]): +VE
DILI prediction hLiMTs, HCI alone (hLiMTs [12]; HCS endpoints only, 25 × Cmax.tot cut-off): detection
AC50 (hLiMTs [12]; Homo sapiens, read-out: HCS endpoint AC50): 16900 nM
minimal effective concentration (hLiMTs [12]; Homo sapiens, read-out: HCS endpoint MEC): 0.703 µM
DILI prediction hLiMTs (HCS-MEC) (hLiMTs [12]; [19]): +VE (MEC < 25 × Cmax.tot cut-off)
DILI prediction hLiMTs, ATP alone (hLiMTs [12]; cellular ATP only, 25 × Cmax.tot cut-off): unpredicted
fu [13]: 0.500
DILI in vitro assay prediction, Schadt (2015) ([15]; BSEP & Metabolism based, ref Schadt et al. 2015): -VE
Cellular toxicity (3T3 cells) [15, 20]: -VE
GSH adduct HML [15, 20]: -VE
Hepatocyte cellular toxicity [15, 20]: -VE
MitoTox 3T3 [15, 20]: -VE
TDI CYP3A4 [15, 20]: -VE
hBSEP inhibition [15, 20]: -VE
Cluser analysis (HepG2 cells [16]; [21]): -VE
Structural based (HCI) (HepG2 cells [16]; [21]): -VE
DILI in vitro assay prediction, Persson (2013) (HepG2 cells [16]; Structural based (HCI), HepG2, ref Persson et al. 2013): -VE
AC50 (HepaRG spheroids; HepaRG, read-out: ATP endpoint AC50): 200 nM
minimal effective concentration (HepaRG spheroids; HepaRG, read-out: ATP endpoint MEC): 0.2 µM
AC50 (HepaRG spheroids; HepaRG, read-out: HCS endpoint AC50): 200 nM
minimal effective concentration (HepaRG spheroids; HepaRG, read-out: HCS endpoint MEC): 0.2 µM
DILI prediction HepaRG spheroids (HCS-MEC) (HepaRG spheroids; [19]): +VE (MEC < 25 × Cmax.tot cut-off)
